{"source": "patent US7906486B2", "about": "“Method of treating or preventing tissue deterioration, injury or damage due to disease of mucosa” (SciClone Pharmaceuticals, Inc., priority 2007, dated 2011)", "key": {"[1]": {"tested_on": "spleen lymphocytes", "conditions": "cited from earlier work"}, "[2]": {"assay": "Weights and survival (Example 4, SCI-04)", "type": "in vivo, Syrian Golden Hamsters", "design": "Animal weight: unit not given here", "conditions": "for Animal weight: Group 2 (SCV-07 10 μg/kg, day −1 to day 20), individual animals", "experimental": "All animals were weighed daily and their survival recorded, in order to assess possible differences in animal weight among treatment groups as an indication for mucositis severity and/or possible toxicity resulting from the treatments.\nThere were no significant differences in weight changes between study groups. The mean daily percent weight change data was evaluated. The saline treated control hamsters gained an average of 46.5% of their starting weight during the study. Hamsters in the group receiving SCV-07 at 10 μg/kg on days −1 to 20 gained an average of 51.3% of their starting weight during the study. Hamsters in the group receiving SCV-07 at 100 μg/kg on days −1 to 20 gained an average of 46.7% of their starting weight during the study. Hamsters in the group receiving SCV-07 at 1 mg/kg from day −1 to day 20 gained an average of 48.8% of their starting weight during the study. The significance of these differences was evaluated by calculating the area-under-the-curve (AUC) for the weight gain of each animal, and then comparing the different treatment groups using a One-Way ANOVA test."}, "[3]": {"tested_on": "oral mucositis induced by fractionated radiation (eight doses of 7.5 Gy, left buccal cheek pouch)", "assay": "Oral mucositis induced by fractionated radiation in hamsters, mucositis scoring (Example 3, SCI-03)", "type": "in vivo, Syrian Golden Hamsters", "conditions": "for % Days >=3 / Days <3 / Days >=3 / Chi Sq v control: 100 ug/kg, qd; for Days >=3: animal days with mucositis score of three or more; for Chi Sq v control: days with score >=3", "excerpt": "The fractionated radiation model in hamsters, developed by the Principal Investigator, has proven to be an accurate, efficient and cost-effective technique to provide a preliminary evaluation of anti-mucositis compounds. In this model, hamsters receive 8 doses of 7.5 Gy to the left cheek pouch on days 0, 1, 2, 3, […], rather than the single dose of 40 Gy on day 0 that is used in acute radiation studies. The rationale for using this scheduling for the radiation is that it more closely resembles the clinical courses of radiotherapy given to cancer patients. The course of mucositis in this model is well defined and results in peak mucositis scores approximately 14-16 days following radiation. Mortality (generally from the side effects of anesthesia) in the fractionated radiation model is slightly higher than that seen in the acute radiation model and group sizes are increased (to 10 per group) to allow for this.\n(§1) Forty (40) male Syrian Golden Hamsters were given eight doses of radiation of 7.5 Gy each directed to their left buccal cheek pouch on days 0, 1, 2, 3, 6, 7, 8 and 9. This was accomplished by anesthetizing the animals and everting the left buccal pouch, while protecting the rest of the animal's bodies with a lead shield. Test materials were given by sub-cutaneous injection once daily as detailed in Table 9. Mucositis was evaluated clinically starting on day 7, and continuing on alternate days until day 35. Test articles were given as outlined Table 9, Groups 1 and 2 were dosed from Day −1 to Day 29, Group 3 was dosed on the days of radiation only, Group 4 was dosed on the days between Day −15 and Day 29 on which no radiation is given (Day −1, Day 4, Day 5 and Day 10 to Day 29).\nThe effect on mucositis of each drug treatment compared to placebo was assessed according to the following parameters:\nOn each evaluation day, the number of animals with a blinded mucositis score of ≧3 in each drug treatment group was compared to the control group. Differences were compared on a cumulative basis and statistical significance was determined by chi-square analysis. Efficacy, in this analysis, is defined by a significant reduction in the number of days that a group of animals had ulcerations (scores ≧3) when compared to the control group.\nFor each evaluation day the scores of the control group were compared to those of the treated groups using non-parametric rank sum analysis. Treatment success was considered as a statistically significant lowering of scores in the treated group on 2 or more days from day 6 to day 28.\nas §1, with “daily at 8:00 am” for “daily”, “9. […]” for “9. Mucositis was evaluated clinically starting on day 7, and continuing on alternate days until day 35.”, “2 was” for “2 were”, “radiation only (days 0-3 and days 6-10),” for “radiation only,”, “Day −1” for “Day −15”, “Day 4 to” for “Day 4,”\nRadiation was generated with a Philips 160 kVp (kilovolt potential) (18.75-ma) X-ray source at a focal distance of 30 cm, with a 3.0 mm hardened Al filtration system. Irradiation was targeted to the left buccal pouch mucosa at a rate of 3.32 Gy/minute. […] Using this calibration, the energy received by each animal at each radiation dose was approximately 64.5 nC (nanoCoulombs) at each time point. Prior to irradiation, animals were anesthetized with an intraperitoneal injection of ketamine (160 mg/kg) and xylazine (8 mg/kg). The left buccal pouch was everted, fixed and isolated using a lead shield.\nThe mucositis score, weight change and survival were measured throughout the study as described above. […]"}, "[4]": {"conditions": "100 ug/kg from day -1 to day 29"}, "[5]": {"conditions": "100 ug/kg on the days of radiation (0-3 and 6-9)"}}, "note": "Several values for one entry are separate records, joined by “and”; a condition that tells them apart may be missing. Equal entries are not always repeated."}
{"smiles": "N[C@H](CCC(=O)N[C@@H](Cc1c[nH]c2ccccc12)C(=O)O)C(=O)O", "note": "[SCV-07, γ-D-glutamyl-L-tryptophan]", "values": [{"measurement": "IL-2 receptor expression by spleen lymphocytes", "setting": "[1]; Con-A-induced", "result": "increases"}, {"measurement": "Con-A-induced interleukin-2 (IL-2) production", "setting": "[1]; spleen lymphocytes", "result": "increases"}, {"measurement": "average weight gain, % of starting weight during the study", "setting": "[2]; 10 ug/kg on days -1 to 20", "result": 51.3, "unit": "%"}, {"measurement": "average weight gain, % of starting weight during the study", "setting": "[2]; 100 ug/kg on days -1 to 20", "result": 46.7, "unit": "%"}, {"measurement": "average weight gain, % of starting weight during the study", "setting": "[2]; 1 mg/kg from day -1 to day 20", "result": 48.8, "unit": "%"}, {"measurement": "Animal weight", "setting": "[2]; day 0", "result": "77 (2×) and 102 and 84 and 80 and 94"}, {"measurement": "Animal weight", "setting": "[2]; day 1", "result": "74 and 101 and 83 and 80 and 76 and 91"}, {"measurement": "Animal weight", "setting": "[2]; day 2", "result": "78 and 104 and 89 and 86 and 77 and 94"}, {"measurement": "Animal weight", "setting": "[2]; day 3", "result": "82 and 111 and 93 and 88 and 79 and 98"}, {"measurement": "Animal weight", "setting": "[2]; day 4", "result": "83 and 113 and 95 and 90 and 82 and 101"}, {"measurement": "Animal weight", "setting": "[2]; day 5", "result": "86 and 112 and 98 and 93 and 83 and 103"}, {"measurement": "Animal weight", "setting": "[2]; day 6", "result": "88 and 114 and 101 and 96 and 84 and 106"}, {"measurement": "Animal weight", "setting": "[2]; day 7", "result": "90 and 117 and 103 and 98 and 86 and 108 and 80"}, {"measurement": "Animal weight", "setting": "[2]; day 8", "result": "92 and 121 and 106 and 101 and 88 and 109 and 83"}, {"measurement": "Animal weight", "setting": "[2]; day 9", "result": "94 and 122 and 106 and 102 and 91 and 108 and 83"}, {"measurement": "Animal weight", "setting": "[2]; day 10", "result": "96 and 125 and 112 and 105 and 90 and 109 and 85"}, {"measurement": "Animal weight", "setting": "[2]; day 11", "result": "98 and 125 and 111 and 105 and 92 and 109"}, {"measurement": "Animal weight", "setting": "[2]; day 12", "result": "98 and 128 and 111 and 107 and 91 and 109"}, {"measurement": "Animal weight", "setting": "[2]; day 13", "result": "98 and 128 and 112 and 108 (2×) and 90"}, {"measurement": "Animal weight", "setting": "[2]; day 14", "result": "99 and 130 and 115 and 109 and 91 and 111"}, {"measurement": "Animal weight", "setting": "[2]; day −1", "result": "77 and 101 and 85 and 82 and 76 and 94"}, {"measurement": "day of peak mean mucositis score", "setting": "[3]; [4]", "result": 19}, {"measurement": "peak mean mucositis score", "setting": "[3]; [4]", "result": 3.3}, {"measurement": "peak mean mucositis score", "setting": "[3]; 100 ug/kg on days 1, 4, 5 and 10 through 29", "result": 2.9}, {"measurement": "day of peak mean mucositis score", "setting": "[3]; [5]", "result": 17}, {"measurement": "peak mean mucositis score", "setting": "[3]; [5]", "result": 3.0}, {"measurement": "% Days >=3", "setting": "[3]; sc Days 0 to 3 and 6 to 9", "result": 24, "unit": "%"}, {"measurement": "Days <3", "setting": "[3]; sc Days 0 to 3 and 6 to 9", "result": 228}, {"measurement": "% Days >=3", "setting": "[3]; sc Days -1, 4, 5 10 to 29", "result": 30.7, "unit": "%"}, {"measurement": "Days <3", "setting": "[3]; sc Days -1, 4, 5 10 to 29", "result": 208}, {"measurement": "% Days >=3", "setting": "[3]; sc Days -1 to 29", "result": 32.7, "unit": "%"}, {"measurement": "Days <3", "setting": "[3]; sc Days -1 to 29", "result": 202}, {"measurement": "Days >=3", "setting": "[3]; sc Days 0 to 3 and 6 to 9", "result": 72}, {"measurement": "Days >=3", "setting": "[3]; sc Days -1, 4, 5 10 to 29", "result": 92}, {"measurement": "Days >=3", "setting": "[3]; sc Days -1 to 29", "result": 98}, {"measurement": "Chi Sq v control", "setting": "[3]; sc Days 0 to 3 and 6 to 9", "result": 0.3160}, {"measurement": "Chi Sq v control", "setting": "[3]; sc Days -1, 4, 5 10 to 29", "result": 0.2300}, {"measurement": "Chi Sq v control", "setting": "[3]; sc Days -1 to 29", "result": 0.575}]}
